From patent US12629370B2, “Treatment of prostate cancer” (Sumitomo Pharma Co., Ltd., priority 2016, dated 2026)
Entries after “also recorded” stand apart in the source; their conditions may differ. Where two headings read alike, the source gives them in different places.

Columns and labels:
[1] = test system: serum PSA; test: Example 6: serum PSA (CLEIA); format: in vivo, human
Protocol: This study consisted of two parts: Part A, a dose-rising phase, and Part B, an expansion phase. Whether or not the study would proceed to the next cohort or to Part B was determined through assessment of tolerability at the present dose, based on the incidence of adverse effects during the evaluation period.
Subjects in Cohort 1 received a load dose of 320 mg and a maintenance dose of 80 mg; subjects in Cohort 2 received a load dose of 320 mg and a maintenance dose of 120 mg; subjects in Cohort 3 received a load dose of 320 mg and a maintenance dose of 160 mg; and subjects in Cohort 4 received a load dose of 360 mg and a maintenance dose of 120 mg.
In addition to the safety assessments, efficacy assessments were also performed according to the study schedule, and the Compound 1 formulation was administered until each subject met the discontinuation criteria.

[2] = Example 7: single and multiple dose pharmacokinetics and food effect in healthy men; format: in vivo, human; details: for half-life: read-out: mean plasma T1/2 (converted)
Protocol: Samples were analyzed using validated liquid chromatography with tandem mass spectrometry (LC/MS/MS) methods. The LLOQ was 0.0100 ng/ml for plasma and 0.500 ng/ml for urine.
Then, a formal assessment was performed using both analysis of variance (ANOVA) and power model approaches. […] In Part 2, steady state attainment was determined based on visual inspection of mean observed predose plasma concentration during multiple dosing (Ctrough) versus time profiles at each dose level. Noncompartmental analysis of Part 3 and 4 data were not planned given the limited number of postdose samples collected per subject on Days 1 and 28.

[3] = test system: patients with advanced prostate cancer; test: Example 8: treatment-emergent adverse events (safety population)
Protocol: The core tablets were coated with a film coating comprising hypromellose 2910 (21.36 mg), titanium dioxide (2.4 mg), and red ferric oxide (0.06 mg).
For patients receiving leuprolide acetate (leuprorelin), on-treatment study visits occurred at baseline (day 1, week 1), day 1 of weeks 2, 3, and 5, and then every 4 weeks until week 25, and then at 12 week intervals (week 37 and 49). Patients on leuprorelin received their final injection at week 37, day 1, and the week 49, day 1 visit was considered the end of leuprorelin exposure. Patients receiving leuprorelin at visits at 16 (EOT), 20 (follow-up visit), and 24 (EOS) weeks after the last leuprorelin injection.
Efficacy and safety analyses were conducted using a safety population (received ≥1 dose of study drug). […] Safety was assessed by recording the incidence, severity, and types of treatment-emergent adverse events; by physical examination (including slit lamp examination of the anterior eye); and by evaluating changes from baseline in weight, vital signs, 12-lead electrocardiogram (ECG), and clinical laboratory parameters. […] Adverse events were coded using the Medical Dictionary for Regulatory Activities version 19.0 and graded according to National Cancer Institute Common Terminology Criteria version 4.03 (Tables 7 and 8). Safety-related haematology, chemistry, and urinalysis measurements were taken at each study visit and analysed at a central laboratory (LabCorp). Phospholipidosis was assessed as part of the safety assessments.

[4] = test system: FSH; test: Example 9: FSH; format: in vivo, human
Protocol: Eligible male patients were aged ≥18 years with a histologically confirmed diagnosis of localized, intermediate-risk prostate cancer, for whom 6-month neoadjuvant and adjuvant androgen deprivation therapy (ADT) to external beam radiation therapy (EBRT) was indicated. The criteria for establishing intermediate-risk prostate cancer included the presence of one of the following, without any high-risk feature: T2b-T2c disease, Gleason score 7, or prostate-specific antigen (PSA) 10-20 ng/mL. Additional inclusion criteria included: EBRT scheduled to begin ≥12 weeks after baseline visit; screening serum testosterone >150 ng/dL (5.2 nmol/L); screening PSA concentration >2 ng/ml; body mass index ≥18.0 at screening or baseline (i.e., the subject's BMI prior to treatment commencing); Eastern Cooperative Oncology Group performance status of 0 or 1 at screening. Based on investigator discretion and clinical assessment of the patient's overall medical and disease status, participation was allowed for older patients with high-risk disease (e.g., based on Gleason score or tumor status) who were deemed likely to benefit from 6 months of neoadjuvant/adjuvant ADT. Most patients had intermediate-risk disease. However, a few patients, based on Gleason score or tumor, node, and metastasis staging system, were technically of higher than intermediate risk.
Both treatment arms received treatment for 24 weeks. Patients remained on treatment for at least 12 weeks before the start of external beam radiation treatment (EBRT), which was initiated for most patients between Week 13, Day 1 and Week 15, Day 1. EBRT began no later than day 1, week 17.
Patients were evaluated every 4 weeks during the treatment period (including day 1, week 25), at end of treatment (defined as week 29), during follow-up (week 33), and at end of study (EOS).
Samples for testosterone, luteinizing hormone (LH), FSH, and PSA concentrations were taken at screening, on day 1 of the first week (additionally days 2 and 4 for testosterone and LH), and on day 1 of weeks 2, 3, 5, 9, 13, 17, 21, 25, 29, 33, and 37 thereafter. […] Suppression of FSH was less profound than that of LH, but consistent with the literature, and was greater than that observed with GnRH agonists.

[5] = Part A Day 28, Cohort 1 (320 mg load, 80 mg QD)
[6] = Part A Day 28, Cohort 2 (320 mg load, 120 mg QD)
[7] = Part A Day 28, Cohort 3 (320 mg load, 160 mg QD)
[8] = Part B Week 13 Day 1 (LOCF), 120 mg group

SMILES: CONC(=O)Nc1ccc(-c2sc3c(c2CN(C)C)c(=O)n(-c2ccc(OC)nn2)c(=O)n3Cc2c(F)cccc2F)cc1 [Compound 1, N-(4-(1-(2,6-difluorobenzyl)-5-((dimethylamino)methyl)-3-(6-methoxy-3-pyridazinyl)-2,4-dioxo-1,2,3,4-tetrahydrothieno[2,3-d]pyrimidin-6-yl)phenyl)-N′-methoxyurea]
- mean percentage change from baseline in serum PSA [1, 5]: −76.37%
- median percentage change from baseline in serum PSA [1, 5]: −77.50%
- mean percentage change from baseline in serum PSA [1, 6]: −60.10%
- median percentage change from baseline in serum PSA [1, 6]: −72.30%
- mean percentage change from baseline in serum PSA [1, 7]: −32.10%
- median percentage change from baseline in serum PSA [1, 7]: −50.50%
- median percentage change from baseline in serum PSA ([1]; Part B Week 13 Day 1 (LOCF), 80 mg group): −97.20%
- mean percentage change from baseline in serum PSA [1, 8]: −93.11%
- median percentage change from baseline in serum PSA [1, 8]: −95.80%
- decrease in mean Cmax and mean plasma AUC0-∞ on co-administration with food versus fasting ([2]; 180 mg single dose): approximately 50%
- median Tmax, fasting conditions ([2]; 180 mg single dose): 1.75 h
- median Tmax, fed conditions ([2]; 180 mg single dose, high fat breakfast): 5.00 h
- decrease in mean plasma AUC (systemic exposure), dosing 30 min before standardized meal versus fasted ([2]; 180 mg, Part 2 Day 1 versus Part 1 fasted): approximately 28%
- dose proportionality of mean Cmax at steady state ([2]; 20 to 180 mg QD): increased slightly more than dose-proportionately
- dose proportionality of mean plasma AUC0-tau at steady state ([2]; 20 to 180 mg QD): increased in a dose-proportional manner
- median Tmax ([2]; across all doses studied): ~2 h
- Compound 1 excreted unchanged in urine ([2]; after single and repeat dosing): Less than 4%
- Tmax ([2]; male, human, plasma, oral, 180 mg single dose, high fat breakfast, read-out: median Tmax, fed conditions): 5 h
- half-life ([2]; male, human, plasma, oral, across the 20 to 180 mg QD dose range): 36 to 65 h
- half-life ([2]; male, human, plasma, oral, repeat dosing, 20 mg QD): 64.5 h
- half-life ([2]; male, human, plasma, oral, repeat dosing, 180 mg QD): 35.8 h
- dose proportionality of mean Cmax and mean plasma AUC0-∞ ([2]; single doses of 80 mg to 360 mg): dosed proportionally over 80-360 mg range; also recorded: approximate dose-proportional increases
- increase in systemic exposure following QD dosing ([2]; steady state): approximately 2 fold
- Acute coronary syndrome, Grade ≥3 ([3]; 80 mg QD): 0 n (%)
- Death (Table 7) ([3]; 80 mg QD): 1 (2) n (%)
- Death, Grade ≥3 (Table 8) ([3]; 80 mg QD): 0 n (%)
- Sudden death, Grade ≥3 ([3]; 80 mg QD): 0 n (%)
- Acute coronary syndrome, Grade ≥3 ([3]; 120 mg QD): 1 (2) n (%)
- Death (Table 7) ([3]; 120 mg QD): 0 (0) n (%)
- Death, Grade ≥3 (Table 8) ([3]; 120 mg QD): 1 (2) n (%)
- Sudden death, Grade ≥3 ([3]; 120 mg QD): 1 (2) n (%)
- overall safety profile ([3]; in vivo): appeared similar to that seen in the smaller observational leuprorelin cohort
- FSH level before administration ([4]; Baseline): 11.826 IU/L
- FSH level ([4]; Week 2, Day 1): 2.363 IU/L
- mean FSH level ([4]; Week 25, Day 1): 1.475 IU/L
